Data taken from PubChem BioAssay AID328 (DTP/NCI, 2004).
Several values for one entry are separate records, joined by “and”; a condition that tells them apart may be missing. Equal values may be shown once. Inconclusive results and toxic doses are left out.

Tested on: BDF1 mice, P388 leukemia ip, median survival T/C
Assay: NCI In Vivo Anticancer Drug Screen. Data for tumor model P388 Leukemia (intraperitoneal) in B6D2F1 (BDF1) mice
Conditions: endpoint: median survival time, higher = longer survival
In short: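 Compound-treated tumour-bearing mice were compared with vehicle-treated controls. Survival was recorded, and the value is the treated-group measurement divided by the control-group measurement (T/C).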

[1] = dose: 50.0 mg/kg/injection, schedule: Q01DX009 (ip), vehicle: saline with Tween-80
[2] = dose: 100.0 mg/kg/injection, schedule: Q01DX009 (ip), vehicle: saline with Tween-80

O=C(O)C(O)C(O)C(O)C(O)C(=O)O (stereo unspecified)
T/C (dose: 50.0 mg/kg/injection, schedule: Q01DX010 (ip), vehicle: saline): 100 % of control
T/C (dose: 100.0 mg/kg/injection, schedule: Q01DX010 (ip), vehicle: saline): 109 % of control
T/C (dose: 200.0 mg/kg/injection, schedule: Q01DX010 (ip), vehicle: saline): 100 % of control
T/C (dose: 400.0 mg/kg/injection, schedule: Q01DX010 (ip), vehicle: saline): 104 % of control
T/C (dose: 600.0 mg/kg/injection, schedule: Q01DX010 (ip), vehicle: saline): 88 % of control
T/C (dose: 750.0 mg/kg/injection, schedule: Q01DX010 (ip), vehicle: saline): 88 % of control

COC1OC(C)C(O)C(O)[CH]1[Hg][O]C(C)=O (stereo unspecified)
T/C (dose: 0.18 mg/kg/injection, schedule: Q01DX009 (ip), vehicle: saline): 111 % of control
T/C (dose: 0.37 mg/kg/injection, schedule: Q01DX009 (ip), vehicle: saline): 105 % of control
T/C (dose: 0.75 mg/kg/injection, schedule: Q01DX009 (ip), vehicle: saline): 94 % of control and 105 % of control
T/C (dose: 1.5 mg/kg/injection, schedule: Q01DX009 (ip), vehicle: saline): 86 % of control and 111 % of control

C(=C\c1ccc2ccccc2n1)/c1ccc2c(c1)OCO2
T/C (dose: 100.0 mg/kg/injection, schedule: Q04DX003 (ip), vehicle: saline with Tween-80): 100 % of control
T/C (dose: 200.0 mg/kg/injection, schedule: Q04DX003 (ip), vehicle: saline with Tween-80): 100 % of control
T/C (dose: 400.0 mg/kg/injection, schedule: Q04DX003 (ip), vehicle: saline with Tween-80): 88 % of control

COc1ccc(C2NC(=O)NC2=O)cc1OC (stereo unspecified)
T/C (dose: 50.0 mg/kg/injection, schedule: Q01DX001 (ip), vehicle: saline sonified): 100 % of control
T/C (dose: 100.0 mg/kg/injection, schedule: Q01DX001 (ip), vehicle: saline sonified): 100 % of control
T/C (dose: 200.0 mg/kg/injection, schedule: Q01DX001 (ip), vehicle: saline sonified): 100 % of control

CC1=C(O)C(=O)C(C2=C(O)C(=O)C(C)=C(O)C2=O)=C(O)C1=O
T/C (dose: 0.63 mg/kg/injection, schedule: Q01DX010 (ip), vehicle: saline): 100 % of control
T/C (dose: 1.25 mg/kg/injection, schedule: Q01DX010 (ip), vehicle: saline): 100 % of control
T/C (dose: 62.5 micrograms/kg/injection, schedule: Q01DX001 (ip), vehicle: saline): 118 % of control
T/C (dose: 125.0 micrograms/kg/injection, schedule: Q01DX001 (ip), vehicle: saline): 90 % of control
T/C (dose: 250.0 micrograms/kg/injection, schedule: Q01DX001 (ip), vehicle: saline): 100 % of control
T/C (dose: 500.0 micrograms/kg/injection, schedule: Q01DX001 (ip), vehicle: saline): 100 % of control
T/C (dose: 1000.0 micrograms/kg/injection, schedule: Q01DX001 (ip), vehicle: saline): 100 % of control

c1ccc(N=N/C(=N\Nc2ccccc2)SCCS/C(N=Nc2ccccc2)=N/Nc2ccccc2)cc1
T/C (dose: 25.0 mg/kg/injection, schedule: Q01DX009 (ip), vehicle: saline with Tween-80): 99 % of control
T/C [1]: 99 % of control
T/C [2]: 121 % of control

CCC(C)C(=O)O[C@H]1C(=O)O[C@@H]2C[C@H]3C(C)=CC(=O)[C@@H](O)[C@]3(C)[C@H]3[C@@H](O)[C@H](O)[C@@]4(C)OC[C@]32[C@@H]14 (stereo partly specified)
T/C (dose: 0.06 mg/kg/injection, schedule: Q01DX009 (ip), vehicle: saline + alcohol): 115 % of control
T/C (dose: 0.75 mg/kg/injection, schedule: Q01DX009 (ip), vehicle: saline + alcohol): 159 % of control
T/C (dose: 1.0 mg/kg/injection, schedule: Q01DX009 (ip), vehicle: saline + alcohol): 198 % of control
T/C (dose: 1.5 mg/kg/injection, schedule: Q01DX009 (ip), vehicle: saline + alcohol): 154 % of control
T/C (dose: 2.0 mg/kg/injection, schedule: Q01DX009 (ip), vehicle: saline + alcohol): 155 % of control
T/C (dose: 3.0 mg/kg/injection, schedule: Q01DX009 (ip), vehicle: saline + alcohol): 104 % of control
T/C (dose: 4.0 mg/kg/injection, schedule: Q01DX009 (ip), vehicle: saline + alcohol): 180 % of control

Cc1ccc(N2C(=O)CSC2=S)cc1
T/C [1]: 105 % of control
T/C [2]: 95 % of control
T/C (dose: 200.0 mg/kg/injection, schedule: Q01DX009 (ip), vehicle: saline with Tween-80): 95 % of control

O=C(/C(=C\c1ccccc1)CN1CCOCC1)c1ccc(Br)cc1
T/C (dose: 25.0 mg/kg/injection, schedule: Q01DX009 (ip), vehicle: Klucel (hydroxypropylcellulose) (HPC)): 104 % of control
T/C (dose: 37.5 mg/kg/injection, schedule: Q04DX003 (ip), vehicle: Klucel (hydroxypropylcellulose) (HPC)): 108 % of control
T/C (dose: 50.0 mg/kg/injection, schedule: Q01DX009 (ip), vehicle: Klucel (hydroxypropylcellulose) (HPC)): 108 % of control
T/C (dose: 75.0 mg/kg/injection, schedule: Q04DX003 (ip), vehicle: Klucel (hydroxypropylcellulose) (HPC)): 104 % of control
T/C (dose: 150.0 mg/kg/injection, schedule: Q04DX003 (ip), vehicle: Klucel (hydroxypropylcellulose) (HPC)): 108 % of control
